Structures can show the parent of a compound that is named as a salt.
Each compound was assayed against AaDOP2 (Aedes aegypti, UniProt H6D5H2) (assay: AaDOP2 antagonist screen of the LOPAC1280 library (HEK-CRELuc-Aadop2 cells, luminescence)). Settings: not given.
Format: cell-based

Chain of AaDOP2 (H6D5H2 1-476): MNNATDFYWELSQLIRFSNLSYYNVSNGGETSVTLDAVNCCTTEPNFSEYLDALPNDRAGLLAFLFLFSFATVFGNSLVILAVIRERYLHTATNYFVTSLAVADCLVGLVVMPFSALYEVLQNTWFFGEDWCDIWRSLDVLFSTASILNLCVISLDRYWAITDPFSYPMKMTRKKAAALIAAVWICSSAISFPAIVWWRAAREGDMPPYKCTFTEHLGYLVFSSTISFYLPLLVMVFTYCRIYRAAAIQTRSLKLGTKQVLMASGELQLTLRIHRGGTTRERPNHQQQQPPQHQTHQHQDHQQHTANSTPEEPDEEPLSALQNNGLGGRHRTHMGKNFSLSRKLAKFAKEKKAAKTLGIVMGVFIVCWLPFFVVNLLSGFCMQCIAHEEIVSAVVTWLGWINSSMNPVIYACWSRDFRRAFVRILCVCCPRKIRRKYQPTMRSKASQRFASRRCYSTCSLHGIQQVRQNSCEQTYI

With `C[N+](C)(C)CC=O` [Compound 171, Betaine aldehyde chloride] as the compound, how does the “Compound effect (percent receptor signaling in presence of test compound, relative lux units relative to the SCH23390 control)” value read?
Its value is 99.

`CC(/C=C/c1cccc(Oc2ccc(F)cc2)c1)N(O)C(N)=O` (centres unmarked) [Compound 173, BWB70C] was tested. Which “Compound effect (percent receptor signaling in presence of test compound, relative lux units relative to the SCH23390 control)” value did it give?
Its value is 118.

For `O=c1[nH]c(=O)n([C@H]2C[C@H](O)[C@@H](CO)O2)cc1Br` [Compound 174, 5-Bromo-2'-deoxyuridine], which “Compound effect (percent receptor signaling in presence of test compound, relative lux units relative to the SCH23390 control)” value is on record?
Its value is 84.

How did the “Compound effect (percent receptor signaling in presence of test compound, relative lux units relative to the SCH23390 control)” value turn out when `CC(C)COCC(CN(Cc1ccccc1)c1ccccc1)N1CCCC1` (centres unmarked) [Compound 175, Bepridil hydrochloride] was run?
Its value is 78.

For `CN(C)CC[C@@H](c1ccc(Br)cc1)c1ccccn1` [Compound 176, (+)-Brompheniramine maleate], which “Compound effect (percent receptor signaling in presence of test compound, relative lux units relative to the SCH23390 control)” value is on record?
The value was 97.

How did the “Compound effect (percent receptor signaling in presence of test compound, relative lux units relative to the SCH23390 control)” value turn out when `Oc1ccc(-c2nc(-c3ccncc3)c(-c3ccc(F)cc3)[nH]2)cc1` [Compound 178, SB 202190] was run?
Its value is 65.

With `CC(C)(C)c1ccc(S(=O)(=O)/C=C/C#N)cc1` [Compound 179, Bay 11-7085] as the compound, how does the “Compound effect (percent receptor signaling in presence of test compound, relative lux units relative to the SCH23390 control)” value read?
Its value is 76.

With `CC(C)NCC(O)COc1ccc(CCOCC2CC2)cc1` (centres unmarked) [Compound 180, Betaxolol hydrochloride] as the compound, how does the “Compound effect (percent receptor signaling in presence of test compound, relative lux units relative to the SCH23390 control)” value read?
Its value is 95.

With `N=C(N)c1ccccc1` [Compound 181, Benzamidine hydrochloride] as the compound, how does the “Compound effect (percent receptor signaling in presence of test compound, relative lux units relative to the SCH23390 control)” value read?
The value was 87.

How did the “Compound effect (percent receptor signaling in presence of test compound, relative lux units relative to the SCH23390 control)” value turn out when `C[C@H]1C[C@H]2[C@@H]3CCC4=CC(=O)C=C[C@]4(C)[C@@]3(F)[C@@H](O)C[C@]2(C)[C@@]1(O)C(=O)CO` [Compound 182, Betamethasone] was run?
The value was 89.

Which “Compound effect (percent receptor signaling in presence of test compound, relative lux units relative to the SCH23390 control)” value does the source give for `O=C1CC2(CCCC2)CC(=O)N1CCCCN1CCN(c2ncccn2)CC1` [Compound 183, Buspirone hydrochloride] here?
The value was 83.

For `NC(CO)C(=O)NNCc1ccc(O)c(O)c1O` (centres unmarked) [Compound 184, Benserazide hydrochloride], which “Compound effect (percent receptor signaling in presence of test compound, relative lux units relative to the SCH23390 control)” value is on record?
Its value is 94.

For `C[C@H]1CCC/C=C/[C@@H]2C[C@H](O)C[C@H]2[C@H](O)/C=C/C(=O)O1` [Compound 185, Brefeldin A from Penicillium brefeldianum], which “Compound effect (percent receptor signaling in presence of test compound, relative lux units relative to the SCH23390 control)” value is on record?
Its value is 124.

With `CCCC1O[C@@H]2C[C@H]3[C@@H]4CCC5=CC(=O)C=C[C@]5(C)[C@H]4[C@@H](O)C[C@]3(C)[C@]2(C(=O)CO)O1` (some centres unmarked) [Compound 186, Budesonide] as the compound, how does the “Compound effect (percent receptor signaling in presence of test compound, relative lux units relative to the SCH23390 control)” value read?
Its value is 128.

`CCCCOc1cc(CC2CNC(=O)N2)ccc1OC` (centres unmarked) [Compound 189, Ro 20-1724] was tested. Which “Compound effect (percent receptor signaling in presence of test compound, relative lux units relative to the SCH23390 control)” value did it give?
The value was 122.

`CC(C)C[C@H](NC(=O)[C@@H](O)[C@H](N)Cc1ccccc1)C(=O)O` [Compound 190, Bestatin hydrochloride] was tested. Which “Compound effect (percent receptor signaling in presence of test compound, relative lux units relative to the SCH23390 control)” value did it give?
The value was 145.

How did the “Compound effect (percent receptor signaling in presence of test compound, relative lux units relative to the SCH23390 control)” value turn out when `CC[N+](C)(C)Cc1ccccc1Br` [Compound 191, Bretylium tosylate] was run?
The value was 97.

With `CN1CCc2cc3c(cc2[C@H]1[C@@H]1OC(=O)c2c1ccc1c2OCO1)OCO3` [Compound 192, (+)-Bicuculline] as the compound, how does the “Compound effect (percent receptor signaling in presence of test compound, relative lux units relative to the SCH23390 control)” value read?
The value was 94.

How did the “Compound effect (percent receptor signaling in presence of test compound, relative lux units relative to the SCH23390 control)” value turn out when `COc1ccccc1N1CCN(CCCCNC(=O)c2ccc3ccccc3c2)CC1` [Compound 193, BP 897] was run?
The value was 54.

With `O=c1[nH]c(=O)n([C@H]2C[C@H](O)[C@@H](CO)O2)cc1/C=C/Br` [Compound 194, (E)-5-(2-Bromovinyl)-2'-deoxyuridine] as the compound, how does the “Compound effect (percent receptor signaling in presence of test compound, relative lux units relative to the SCH23390 control)” value read?
Its value is 121.

With `OC(CN1CCN(c2cccc(Cl)c2)CC1)C(c1ccccc1)c1ccccc1` (centres unmarked) [Compound 195, BRL 15572] as the compound, how does the “Compound effect (percent receptor signaling in presence of test compound, relative lux units relative to the SCH23390 control)” value read?
Its value is 84.

Which “Compound effect (percent receptor signaling in presence of test compound, relative lux units relative to the SCH23390 control)” value does the source give for `C=CCc1ccccc1OCC(O)CNC1(C)CCC(C(C)(C)NC(=O)CBr)CC1` (centres unmarked) [Compound 198, Bromoacetyl alprenolol menthane] here?
The value was 87.

`COc1cccc(OC)c1OCCNCC1CSc2ccccc2O1` (centres unmarked) [Compound 199, Benoxathian hydrochloride] was tested. Which “Compound effect (percent receptor signaling in presence of test compound, relative lux units relative to the SCH23390 control)” value did it give?
The value was 68.

How did the “Compound effect (percent receptor signaling in presence of test compound, relative lux units relative to the SCH23390 control)” value turn out when `CC(COc1ccccc1)N(CCCl)Cc1ccccc1` (centres unmarked) [Compound 200, Phenoxybenzamine hydrochloride] was run?
Its value is 86.

How did the “Compound effect (percent receptor signaling in presence of test compound, relative lux units relative to the SCH23390 control)” value turn out when `CC(NC(C)(C)C)C(=O)c1cccc(Cl)c1` (centres unmarked) [Compound 201, Bupropion hydrochloride] was run?
The value was 77.

Which “Compound effect (percent receptor signaling in presence of test compound, relative lux units relative to the SCH23390 control)” value does the source give for `C[N+](C)(C)CCOC(=O)CBr.[Br-]` [Compound 204, Bromoacetylcholine bromide] here?
The value was 91.

How did the “Compound effect (percent receptor signaling in presence of test compound, relative lux units relative to the SCH23390 control)” value turn out when `Cl.c1ccc2sc(C3(N4CCCCC4)CCCCC3)cc2c1` [Compound 207, BTCP hydrochloride] was run?
Its value is 100.

`CN1CCC(c2c[nH]c3ccc(O)cc23)CC1.O=C(O)/C=C\C(=O)O` [Compound 213, BRL 54443 maleate] was tested. Which “Compound effect (percent receptor signaling in presence of test compound, relative lux units relative to the SCH23390 control)” value did it give?
Its value is 80.

Same assay, conditions: 10 µM compound, 300 nM dopamine, 2 hr; hit = compound effect <20

Which “Compound effect (percent receptor signaling in presence of test compound, relative lux units relative to the SCH23390 control)” value does the source give for `Cl.NCC(O)c1cc(O)c(O)cc1F` (centres unmarked) [Compound 197, 6-Fluoronorepinephrine hydrochloride] here?
Its value is 90%.

How did the “Compound effect (percent receptor signaling in presence of test compound, relative lux units relative to the SCH23390 control)” value turn out when `COc1ccccc1N1CCN(CCN2C(=O)CC3(CCCC3)CC2=O)CC1.Cl.Cl` [Compound 205, BMY 7378 dihydrochloride] was run?
The value was 102%.

With `Br.C=CCN1CCc2c(cc(O)c(O)c2Br)[C@@H](c2ccccc2)C1` [Compound 206, R(+)-6-Bromo-APB hydrobromide] as the compound, how does the “Compound effect (percent receptor signaling in presence of test compound, relative lux units relative to the SCH23390 control)” value read?
Its value is 182%.

For `CCNC(=O)[C@H]1O[C@@H](n2cnc3c(NCc4ccccc4)ncnc32)[C@H](O)[C@@H]1O` [Compound 208, N6-Benzyl-5'-N-ethylcarboxamidoadenosine], which “Compound effect (percent receptor signaling in presence of test compound, relative lux units relative to the SCH23390 control)” value is on record?
The value was 108%.

How did the “Compound effect (percent receptor signaling in presence of test compound, relative lux units relative to the SCH23390 control)” value turn out when `Cl.c1ccc2nc(C3=NCCN3)ccc2c1` [Compound 209, BU224 hydrochloride] was run?
The value was 92%.

With `CCN1CCc2nc(N)oc2CC1.Cl.Cl` [Compound 210, B-HT 933 dihydrochloride] as the compound, how does the “Compound effect (percent receptor signaling in presence of test compound, relative lux units relative to the SCH23390 control)” value read?
The value was 79%.

For `C[C@H](Cc1ccc(OCC(=O)[O-])cc1)NC[C@H](O)c1cccc(Cl)c1.[Na+]` [Compound 212, BRL 37344 sodium], which “Compound effect (percent receptor signaling in presence of test compound, relative lux units relative to the SCH23390 control)” value is on record?
The value was 87%.

From publication PMC3265452 (PLoS Neglected Tropical Diseases, 2012)
